Reference: patent publication US20240197700A1, “Methods and Compositions for Treating Lysosomal Storage Disorders” (Sanford Health, priority 2021, published 2024)
Entries after “also recorded” stand apart in the source; their conditions may differ.

Test system: Cln3^Δex7/8 mice
Assay: SubC burden (immunohistochemistry) in brain of Cln3^Δex7/8 mice
Assay type: in vivo, mouse
Protocol: Specific experimental details are included in figure legends. In general, after collection and preparation, MEFs and PNCs were dosed with vehicle or AF38469 (40 nM, 400 nM. or 4 μM) on DIV3 and DIV5. On DIV7, cells were treated with the following dyes: Hoechst 33342 (1:1000 dilution), LysoTrackerT™ Red DND-99 (1:10,000 dilution), fixed, and imaged. Mice were given vehicle or AF38469 (78.125 μg/ml, 3.125 μg/ml, 0.3125 μg/ml or 0.03125 μg/ml equating approximately to 250 μg/mouse/day, 10 μg/mouse/day, 1 μg/mouse/day, and […], respectively, given a mouse's daily water intake of approximately 3.2 ml per day) in drinking water beginning at wean. Body weight was measured bi-weekly, and a force actimeter test was performed on Cln2^R207X mice at 10 weeks of age. Body weight was measured every month for Cln3^Δex7/8 mice. At 11 and 16 weeks of age, respectively, Cln2^R207X and Cln3^Δex7/8 mice along with age matched wild type control mice were CO2 euthanized and intracardially perfused with PBS. Brains were collected and placed on a 1 mm sagittal brain block. Brains were sliced at the midline and 3 mm right of the midline. One hemisphere was fixed in 4% PFA and sectioned at 50 microns on a vibratome. Immunohistochemistry was performed on free-floating sections. For mitochondrial ATP synthase subunit C (SubC), glial fibrillary acidic protein (GFAP), and cluster of differentiation 68 (CD68) immunolabeling, primary antibodies included anti-SubC (Abcam, ab181243; 1:1000), anti-GFAP (Dako, Z0334; 1:5000), anti-CD68 (AbD Serotec, MCA1957; 1:2000), and secondary antibodies included anti-rabbit biotinylated (Vector Labs, BA-1000 1:1000) and anti-rat (Vector Labs, BA-9400 1:1000). Coverslips were mounted on slides using antifade-mounting media and were stored in the dark before imaging. Sections were imaged and analyzed using an Aperio Digital Pathology Slide Scanner (AT2) and associated software. Images were extracted from S1BF of the somatosensory cortex and the VPM/VPL of the thalamus, with multiple images taken of multiple tissues from each animal.
Short-term chronic treatment with AF38469 reduces storage material burden in Cln2^R207X and Cln3^Δex7/8 mice. Beginning at wean, wild type and Cln2^R207X mice were treated with vehicle (0.2408% DMSO) or AF38469 (0.03125 μg/ml, 0.3125 μg/ml, 3.125 μg/ml, 78.125 μg/ml) continuously through the drinking water continuing until sacrifice at 11 weeks. Beginning at wean, wild type and Cln3^Δex7/8 mice were treated with vehicle (0.2408% DMSO) or AF38469 (0.03125 μg/ml, 0.3125 μg/ml, 3.125 μg/ml, 78.125 μg/ml) continuously through the drinking water until sacrifice at 16 weeks. Upon sacrifice, one hemisphere of brain was sectioned at 50 microns on a vibratome; DAB staining immunohistochemistry was then performed using anti-SubC (Abcam, ab181243) anti-rabbit biotinylated (Vector Labs, BA-1000). Sections were imaged and analyzed using an Aperio Digital Pathology Slide Scanner (AT2) and associated software. Images were extracted from S1BF of the somatosensory cortex and the VPM/VPL of the thalamus, key brain regions for Batten disease pathology. Percent area of immunoreactivity were quantified using a threshold analysis in ImageJ™. Statistical analyses were performed using GraphPad Prism™ (v8.4.3; San Diego, CA). […] Increasing concentrations of AF38469 and corresponding genotypes are shown along the x-axis. Nested one-way ANOVA. […]

CC[C@H](C)[C@H](N)C(=O)NCCN1CCOCC1 [LM11A-31, N-[2-(morpholin-4-yl)ethyl]-L-isoleucinamide]
SubC burden (LM11A-31 0.6 mg/mL, VPM/VPL of the thalamus): decrease; also recorded: decreasing trend | Subunit C burden (LM11A-31 0.6 mg/mL, somatosensory cortex (S1BF)): increase; also recorded: did not significantly decreased

Cc1cccc(NC(=O)c2ccc(C(F)(F)F)cc2C(=O)O)n1 [AF38469, 2-((6-methylpyridin-2-yl)carbamoyl)-5-(trifluoromethyl)benzoic acid]
Subunit C burden (0.03125 μg/ml, 0.3125 μg/ml in drinking water, somatosensory cortex and VPM/VPL of the thalamus, 16 weeks): significantly decreased | Subunit C burden (3.125 μg/ml in drinking water, somatosensory cortex and VPM/VPL of the thalamus, 16 weeks): significantly decreased | Subunit C burden (3.125 μg/ml, 78.125 μg/ml in drinking water, somatosensory cortex, 16 weeks): significantly decreased
